Patent US11148991B2, “5-bromo-2-(alpha-hydroxypentyl)benzoic acid sodium salts in different crystal forms, and preparation method thereof” (priority 2013, dated 2021)
Like-named read-outs stand apart in the source and are kept apart here.

Key:
[1] = Stability in water and methanol solution; assay type: physicochemical; details: sodium salt
[2] = Acute toxicity (LD50), mouse; details: in vivo
[3] = Acute toxicity (LD50), rat; details: in vivo
[4] = tested on: blood coagulation functions in rats; experiment: Sub-acute toxic effect on blood coagulation functions in rats; assay type: in vivo
[5] = Solubility in water and methanol; assay type: physicochemical
[6] = tested on: rat MCAO model; experiment: Brain infarction volume and brain edema volume in rats with local brain ischemia (MCAO model); assay type: in vivo, Wistar rats; details: sodium salt
Description: Wistar rats (50% of rats is female and another 50% of rats is male); 5-bromo-2-(α-hydroxypentyl)benzoic acid sodium salt (BZP, in the form of amorphous form, crystal form A and crystal form B, prepared according to the present invention), prepared in double distilled water; […] is in the form of white powder, manufactured by Beijing Chemical Works.
Administration method: 5-bromo-2-(α-hydroxypentyl)benzoic acid sodium salt (BZP) was intravenously injected at one hour before MCAO, with the dosage of 12 mg/kg; 5-bromo-2-(α-hydroxypentyl)benzoic acid sodium salt (BZP) was used to intragastric administration at one hour before MCAO, with the dosage of 20 mg/kg. 2-(α-hydroxypentyl)benzoic acid potassium salt (NBP-K) was used as positive control, and its dosage (calculated in moles) is the same as that of 5-bromo-2-(α-hydroxypentyl)benzoic acid sodium salt, that is, the dosage of intravenous injection is 9.6 mg/kg, and the dosage of intragastric administration is 15.9 mg/kg.
Preparation of MCAO model: Establish a focal brain ischemia-reperfusion injury model by cerebral artery obstruction in rats with suture-occluded method. Rats were intraperitoneally injected with 10% chloral hydrate to anesthetize. Rats were fixed on back and the skin of neck center was incised. The left common carotid artery, external carotid artery, and internal carotid artery were subjected to blunt dissection. The pterygopalatine artery was ligated, only remaining cranial trunk of internal carotid artery; a prepared nylon rope (burning diameter 0.3 mm) was inserted via external carotid artery incision into the bifurcation of the […], and was pushed along the cranial direction of the internal carotid artery. […] This indicates one side of the middle cerebral artery occlusion model was completed. Sutured the incision, remained the end of nylon line out of the skin. For reperfusion, the nylon line was gently pulled out. If feel force of resistance, this indicates the end of nylon line has returned to the trunk of external carotid artery, thereby accomplishing reperfusion.
Determination of infarction volume: After being subjected to ischemia for 2 hours and reperfusion for 24 hours, the heads of rats were cut off. Forebrain was removed and cut into six pieces, each piece being 2 mm. The pieces were stained with TC, and incubated at 37° C. for 30 minutes. Normal issues were stained to be red, but the infarcted issues were stained to be white. Took photos with digital camera, and calculated the percentage of the infarcted area relative to the spherical area of brain by Photoshop.

[7] = intragastric administration one hour before MCAO, BZP 20 mg/kg, NBP-K 15.9 mg/kg
[8] = intravenous injection one hour before MCAO, 12 mg/kg, 12 mg/kg

CCCCC(O)c1ccc(Br)cc1C(=O)[O-].[Na+] (stereo not drawn) [BZP (amorphous form), 5-bromo-2-(α-hydroxypentyl)benzoic acid sodium salt]
Stability ([1]; in methanol solution): >24 h | Stability ([1]; in water): >24 h | LD50 ([2]; iv): 323 mg/kg | LD50 ([2]; po): 927 mg/kg | LD50 ([3]; iv): 246 mg/kg | LD50 ([3]; po): 726 mg/kg | APTT ([4]; rats F, ig (20 mg/kg)): 22.8 ± 5.9 s | FIB ([4]; rats F, ig (20 mg/kg)): 7.22 ± 0.97 g/L | PT ([4]; rats F, ig (20 mg/kg)): 17.5 ± 2.2 s | TT ([4]; rats F, ig (20 mg/kg)): 27.3 ± 2.4 s | APTT ([4]; rats F, iv (12 mg/kg)): 22.3 ± 8.5 s | FIB ([4]; rats F, iv (12 mg/kg)): 6.63 ± 0.95 g/L | PT ([4]; rats F, iv (12 mg/kg)): 18.8 ± 3.3 s | TT ([4]; rats F, iv (12 mg/kg)): 27.5 ± 2.8 s | APTT ([4]; rats M, ig (20 mg/kg)): 26.5 ± 3.2 s | FIB ([4]; rats M, ig (20 mg/kg)): 7.03 ± 0.29 g/L | PT ([4]; rats M, ig (20 mg/kg)): 16.4 ± 3.4 s | TT ([4]; rats M, ig (20 mg/kg)): 26.9 ± 5.9 s | APTT ([4]; rats M, iv (12 mg/kg)): 23.7 ± 2.1 s | FIB ([4]; rats M, iv (12 mg/kg)): 6.28 ± 0.55 g/L | PT ([4]; rats M, iv (12 mg/kg)): 17.5 ± 2.0 s | TT ([4]; rats M, iv (12 mg/kg)): 27.1 ± 3.8 s | solubility ([5]; methanol, organic solvent or mixture, methanol, read-out: Solubility in methanol): 1890 mg/mL | solubility ([5]; water, read-out: Solubility in water): 2980 mg/mL | Edema (%) [6, 7]: 2.24 ± 1.66^aa** % | Infarction volume (%) [6, 7]: 5.59 ± 2.35 aa % | Inhibition of edema (%) [6, 7]: 88.36% | Inhibition of infarction volume (%) [6, 7]: 89.05% | Edema (%) [6, 8]: 2.56 ± 1.63 aa % | Inhibition of edema (%) [6, 8]: 88.58% | Infarction volume (%) ([6]; intravenous injection one hour before MCAO, BZP 12 mg/kg, NBP-K 9.6 mg/kg, ischemia 2 hours, reperfusion 24 hours): 3.46 ± 2.94 aa % | Inhibition of infarction volume (%) ([6]; intravenous injection one hour before MCAO, BZP 12 mg/kg, NBP-K 9.6 mg/kg): 93.52%
